# Patent US4672036A, “Pure cultures of Kibdelsporangium aridum Shearer gen. nov., sp. nov. ATCC 39323 and mutants thereof” (SmithKline Beckman Corporation, priority 1985, dated 1987)
# Read-outs that look alike come from different tables or passages of the source.
# Assays:
# [1] = system: K. aridum; assay: susceptibility of K. aridum to antibiotics, disk diffusion method; type: cell-based, Kibdelosporangium aridum; settings: for zone of inhibition at 5 µg/disc: Kibdelosporangium aridum, 168 h
# Description: Susceptibility of K. aridum to antibiotics was examined by placing BBL susceptibility disks on nutrient agar plates seeded with K. aridum as an overlay. Diameters of the zones of inhibition were measured after incubation for one week at 28° C.
# Chlortetracycline ([…]) produced 18 mm zones of inhibition; tetracycline (5 μg) 11-12 mm zones; rifampin (5 μg) 11-15 mm zones; novobiocin (5 μg) 27-28 mm zones. All zones of inhibition contained at least a few resistant colonies.
# [2] = system: rumen in vitro model; assay: rumen in vitro model (growth promotant activity); design: species or system steer
# Description: The protocol for the rumen in vitro model is analogous to the protocol for the swine in vitro model with the following modifications:
# (1) A 400 kg steer is surgically prepared with a rumen cannula.
# (2) The animal is fed one time a day with the following ration:
# (3) Manipulation of VFA production is described as the production ratio of propionate as a percentage of total VFA produced.
# (4) Sampling of the material, via the cannula, is at 120 minutes post feeding.
# [3] = rye diet; for Feed/Gain 3-10: days 3-10; for Feed/Gain 3-17: days 3-17; for Feed/Gain 10-17: days 10-17
# [4] = system: Swine in vitro model; assay: swine in vitro model (growth promotant activity)
molecule,measurement,setting,value
CO[C@@H]1[C@@H](OC(N)=O)[C@@H](O)[C@H](Oc2ccc3c(O)c(NC(=O)c4ccc(O)c(CC=C(C)C)c4)c(=O)oc3c2C)OC1(C)C [novobiocin],zone of inhibition at 5 µg/disc,[1],27 to 28 mm
CC1(C)S[C@@H]2[C@H](NC(=O)Cc3ccccc3)C(=O)N2[C@H]1C(=O)O [penicillin],susceptibility of K. aridum,[1]; disk 10 units,resistant
CO[C@H]1/C=C/O[C@@]2(C)Oc3c(C)c(O)c4c(O)c(c(/C=N/N5CCN(C)CC5)c(O)c4c3C2=O)NC(=O)/C(C)=C\C=C\[C@H](C)[C@H](O)[C@@H](C)[C@@H](O)[C@@H](C)[C@H](OC(C)=O)[C@@H]1C [rifampin],zone of inhibition at 5 µg/disc,[1],11 to 15 mm
[H]/N=C(/N)N[C@H]1[C@H](O)[C@@H](O)[C@H](O[C@@H]2O[C@@H](C)[C@](O)(C=O)[C@H]2O[C@@H]2O[C@@H](CO)[C@H](O)[C@@H](O)[C@@H]2NC)[C@@H](N/C(N)=N\[H])[C@@H]1O [streptomycin],susceptibility of K. aridum,[1]; disk 10 μg,resistant
CN(C)C1C(=O)C(C(N)=O)=C(O)C2(O)C(=O)C3=C(O)c4c(O)cccc4C(C)(O)C3CC12 (centres unmarked) [tetracycline],zone of inhibition at 5 µg/disc,[1],11 to 12 mm
NC[C@H]1O[C@H](O[C@H]2[C@H](O)[C@@H](O[C@H]3O[C@H](CO)[C@@H](O)[C@H](N)[C@H]3O)[C@H](N)C[C@@H]2N)[C@H](N)C[C@@H]1O [tobramycin],susceptibility of K. aridum,[1]; disk 10 μg,resistant
Avoparcin,GLU (glucose),[2]; 0.5 ppm,116 % Control
same,Propionate %,[2]; 0.5 ppm,106 % Control
same,GLU (glucose),[2]; 5.0 ppm,166 % Control
same,Propionate %,[2]; 5.0 ppm,121 % Control
same,GLU (glucose),[2]; 50.0 ppm,141 % Control
same,Propionate %,[2]; 50.0 ppm,132 % Control
Virginiamycin,Weight Day 10,[3]; 10.0 PPM,103.8 % of Control
same,Weight Day 17,[3]; 10.0 PPM,116.0 % of Control
same,Feed/Gain 3-10,[3]; 10.0 PPM,97.4 % of Control
same,Feed/Gain 3-17,[3]; 10.0 PPM,90.4 % of Control
same,Feed/Gain 10-17,[3]; 10.0 PPM,83.6 % of Control
same,Weight Day 10,[3]; 50.0 PPM,105.0 % of Control
same,Weight Day 17,[3]; 50.0 PPM,121.3 % of Control
same,Feed/Gain 3-10,[3]; 50.0 PPM,93.2 % of Control
same,Feed/Gain 3-17,[3]; 50.0 PPM,83.2 % of Control
same,Feed/Gain 10-17,[3]; 50.0 PPM,74.6 % of Control
same,LAC (L-lactic acid),[4],81 % Control
same,GLU (glucose),[4]; 1.67 ppm,182 % Control
same,LAC (L-lactic acid),[4]; 1.67 ppm,70 % Control
same,LYS (lysine),[4]; 1.67 ppm,82 % Control
same,GLU (glucose),[4]; 16.67 ppm,191 % Control
same,LAC (L-lactic acid),[4]; 16.67 ppm,76 % Control
same,LYS (lysine),[4]; 16.67 ppm,127 % Control
same,GLU (glucose),[4]; 166.67 ppm,197 % Control
same,LYS (lysine),[4]; 166.67 ppm,163 % Control
gentamicin,susceptibility of K. aridum,[1]; disk 10 μg,resistant
